We go through twelve compounds from patent US9186402B2 (Colorado State University Research Foundation, priority 2008, dated 2015).

Data set [1] addresses T1, HDAC2 (Homo sapiens, UniProt Q92769). The data set can be described thus: HDAC biochemical assay (IC50), 384-well homogeneous. Particulars: reducing conditions (TCEP 200 μM); read-out: Biochemical inhibition of human HDACs (IC50) HDAC2.
Method: (§1) The inhibitory effect of compounds on deacetylase isoenzyme function was determined in vitro using an optimized homogenous assay performed in 384-well plate format. […] Data are analyzed on a plate-by-plate basis for the linear range of fluorescence over time. Data from the plate capture corresponding to the mid-linear range is imported into analytical software and annotated with well identity and compound concentration (Spotfire DecisionSite). Replicate experimental data from incubations with inhibitor are normalized to control, solvent-only wells and IC-50 is deteremined by logistic regression.
(§2) A liquid handling device then transferred a tripeptide substrate terminating in acetyl-lysine and amide conjugated to 4-methyl-7-aminocoumarin (AMC), recombinant human histone deacetylase (BPS Bioscience, San Diego, Calif.), and recombinant human trypsin (Sigma-Aldrich, St. Louis, Mo.). Following deacetylase hydrolysis of acetyl-lysine, trypsin cleavage liberated the AMC fluorophore. Kinetic (fluorescence per unit time) and end-point (total fluorescence) data were captured by a multilabel plate reader. Replicate data were analyzed by curve-fit using logistic regression (Snotfire Decision—Site).
The target in a further data set is T2, HDAC6 (Homo sapiens, UniProt Q9UBN7).
T2 sequence (Q9UBN7 1-1215): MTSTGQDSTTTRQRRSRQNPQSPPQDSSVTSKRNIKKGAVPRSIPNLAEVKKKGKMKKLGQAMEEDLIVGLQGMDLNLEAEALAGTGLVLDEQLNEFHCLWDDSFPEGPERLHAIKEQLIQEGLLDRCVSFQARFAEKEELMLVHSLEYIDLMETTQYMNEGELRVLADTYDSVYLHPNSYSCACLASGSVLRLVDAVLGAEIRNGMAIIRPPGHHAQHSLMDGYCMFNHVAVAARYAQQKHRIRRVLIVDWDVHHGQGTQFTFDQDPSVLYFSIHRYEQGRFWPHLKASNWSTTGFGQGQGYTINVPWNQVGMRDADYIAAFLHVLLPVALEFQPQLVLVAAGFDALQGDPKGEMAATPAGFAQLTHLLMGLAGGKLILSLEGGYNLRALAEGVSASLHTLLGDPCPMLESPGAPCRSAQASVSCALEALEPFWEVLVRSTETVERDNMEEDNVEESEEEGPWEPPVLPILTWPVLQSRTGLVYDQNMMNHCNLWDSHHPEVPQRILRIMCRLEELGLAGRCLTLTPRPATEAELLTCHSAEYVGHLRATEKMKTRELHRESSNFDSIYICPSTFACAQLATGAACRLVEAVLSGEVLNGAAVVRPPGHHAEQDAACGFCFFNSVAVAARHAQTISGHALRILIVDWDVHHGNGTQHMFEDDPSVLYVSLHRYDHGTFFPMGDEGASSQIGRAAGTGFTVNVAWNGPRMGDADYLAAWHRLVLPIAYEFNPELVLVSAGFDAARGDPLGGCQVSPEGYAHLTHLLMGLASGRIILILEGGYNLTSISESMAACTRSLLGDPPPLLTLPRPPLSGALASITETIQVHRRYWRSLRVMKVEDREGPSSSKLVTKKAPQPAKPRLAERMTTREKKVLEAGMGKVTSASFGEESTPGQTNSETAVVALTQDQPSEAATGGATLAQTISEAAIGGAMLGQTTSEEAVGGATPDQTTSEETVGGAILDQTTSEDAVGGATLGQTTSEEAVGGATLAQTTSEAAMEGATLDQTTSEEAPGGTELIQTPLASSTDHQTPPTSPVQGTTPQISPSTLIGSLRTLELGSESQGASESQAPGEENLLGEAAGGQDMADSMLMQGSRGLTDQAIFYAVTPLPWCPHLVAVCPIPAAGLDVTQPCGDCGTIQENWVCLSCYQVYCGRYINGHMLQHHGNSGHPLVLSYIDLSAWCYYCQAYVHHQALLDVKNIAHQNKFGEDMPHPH
Described as above. Particulars: read-out: Biochemical inhibition of human HDACs (IC50) HDAC6.

For data set [2], the target named is T1, HDAC2. The data set can be described thus: HDAC2 inhibition, trypsin-coupled kinetic fluorescence homogeneous assay. It is filed as biochemical.
Method: To measure the inhibitory effect on deacetylase function in vitro, a continuous kinetic biochemical assay miniaturized to 384-well plate format was optimized.
Fluorescence measurements were obtained in real-time on a Varioskan microtiter plate reader (Thermo). Triplicate experimental data from incubations with inhibitor were normalized to solvent-only wells and analyzed by logistic regression (Spotfire DecisionSite).
A biochemical study of HDAC2 inhibition was carried out using the trypsin-coupled, kinetic fluorescence homogeneous assay described above.
In the next data set the target is HDAC1 (Homo sapiens, UniProt Q13547). The data set can be described thus: HDAC biochemical assay (IC50), 384-well homogeneous. The settings on record: reducing conditions (TCEP 200 μM); read-out: Biochemical inhibition of human HDACs (IC50) HDAC1.
The next data set addresses HDAC3/NCor2 (Homo sapiens, UniProt O15379). The description is as above. The settings on record: read-out: Biochemical inhibition of human HDACs (IC50) HDAC3.
A further data set deals with HDACs 1, 2 and 3. The data set can be described thus: HDAC biochemical assay, summary statements on Class I HDACs. Further details: species or system human.
Data set [3] relates to human malignant melanoma cell lines. As to the kind of experiment: cell viability by ATP content (Cell TiterGlo), melanoma panel. It is filed as cell-based. The settings on record: range over panel of human malignant melanoma cell lines, read-out: IC50 melanoma cell proliferation / viability.
The conditions of data set [4]: amide bond, HATU, CH3CN.
The mark [5] stands for this setting: reducing conditions (TCEP 200 μM).
[6] abbreviates: HDAC2, logistic fit of scatter plots, Conc (uM), read-out: X50 (curve fit, activity versus concentration).

Like-named read-outs stand apart in the source and are kept apart here.

T1 sequence (Q92769 whole entry): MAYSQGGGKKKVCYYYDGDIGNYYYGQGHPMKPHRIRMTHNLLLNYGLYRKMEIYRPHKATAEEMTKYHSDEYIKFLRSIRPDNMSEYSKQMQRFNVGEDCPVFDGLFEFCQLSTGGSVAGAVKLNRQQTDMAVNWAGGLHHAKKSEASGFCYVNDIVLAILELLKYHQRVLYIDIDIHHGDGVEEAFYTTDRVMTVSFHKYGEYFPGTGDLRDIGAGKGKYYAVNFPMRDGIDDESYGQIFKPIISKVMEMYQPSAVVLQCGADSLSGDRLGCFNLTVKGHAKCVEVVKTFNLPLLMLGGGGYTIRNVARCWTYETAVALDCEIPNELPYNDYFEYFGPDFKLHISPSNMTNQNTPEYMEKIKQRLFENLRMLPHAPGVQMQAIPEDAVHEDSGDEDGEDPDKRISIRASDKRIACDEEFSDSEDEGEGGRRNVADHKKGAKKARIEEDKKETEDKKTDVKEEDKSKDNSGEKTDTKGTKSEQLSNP
HDAC1, sequence (Q13547 whole entry): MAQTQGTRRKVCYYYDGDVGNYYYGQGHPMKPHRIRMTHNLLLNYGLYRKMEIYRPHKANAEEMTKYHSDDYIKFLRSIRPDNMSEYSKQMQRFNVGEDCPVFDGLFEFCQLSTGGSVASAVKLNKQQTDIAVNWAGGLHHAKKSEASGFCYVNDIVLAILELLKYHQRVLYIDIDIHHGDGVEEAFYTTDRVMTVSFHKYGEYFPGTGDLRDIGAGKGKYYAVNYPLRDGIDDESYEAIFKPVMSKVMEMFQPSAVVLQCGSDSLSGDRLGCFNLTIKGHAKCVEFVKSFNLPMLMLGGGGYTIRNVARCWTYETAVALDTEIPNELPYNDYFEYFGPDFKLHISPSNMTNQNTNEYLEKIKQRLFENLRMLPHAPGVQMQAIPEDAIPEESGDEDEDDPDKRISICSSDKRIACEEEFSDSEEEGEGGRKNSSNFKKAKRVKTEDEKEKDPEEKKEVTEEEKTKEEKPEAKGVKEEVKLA
HDAC3/NCor2, sequence (O15379 whole entry): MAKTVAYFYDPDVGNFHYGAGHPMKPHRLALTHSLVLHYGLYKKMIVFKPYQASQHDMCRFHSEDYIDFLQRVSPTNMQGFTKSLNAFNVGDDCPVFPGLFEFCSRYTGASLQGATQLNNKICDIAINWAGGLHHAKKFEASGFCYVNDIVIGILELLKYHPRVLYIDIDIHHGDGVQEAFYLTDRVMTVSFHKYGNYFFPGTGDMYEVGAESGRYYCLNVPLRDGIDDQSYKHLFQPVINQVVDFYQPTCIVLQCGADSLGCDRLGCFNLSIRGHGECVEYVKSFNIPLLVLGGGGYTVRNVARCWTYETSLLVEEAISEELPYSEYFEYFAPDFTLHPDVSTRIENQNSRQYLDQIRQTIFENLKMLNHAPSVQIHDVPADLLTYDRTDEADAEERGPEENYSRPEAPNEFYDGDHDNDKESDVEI
HDAC3/NCor2, sequence (Q9Y618 395-489 partner limits assumed): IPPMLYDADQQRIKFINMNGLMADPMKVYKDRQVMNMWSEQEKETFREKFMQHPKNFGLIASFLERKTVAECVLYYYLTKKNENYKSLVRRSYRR
Method for HDAC1: as §1, §2
Method for HDAC3/NCor2: as §1, §2
Method for HDAC6: as §1, §2

For the compound `C[C@@]12CSC(=N1)c1csc(n1)CNC(=O)C[C@@H](/C=C/CCS)OC(=O)[C@@H]1CCCN1C2=O` [Proline substitution (4)], the IC50 on HDAC2 [1] is 800 nM; at HDAC6 it was 13000 nM; on HDAC1, 110 nM; on HDAC3/NCor2, 580 nM. Moreover, the “X50 (curve fit, activity versus concentration)” value on HDAC2 [2] is “X50 = 0.7733 uM”.
As for `CC(C)[C@@H]1NC(=O)[C@]2(C)CSC(=N2)c2csc(n2)CNC(=O)C[C@@H](C/C=C\CCC(=O)O)OC1=O` [Largazole-Azumamide hybrid (9b)], the IC50 at HDAC2 [1], on HDAC6 (setting [5]), on HDAC1 and at HDAC3/NCor2 (setting [5]) was greater than 30000 nM in each case.
For `CCCCCCCC(=O)SCCCCC=CC1CC(=O)NCc2nc(cs2)C2=NC(C)(CS2)C(=O)NC(C(C)C)C(=O)O1` (stereo not shown) [ab6_162b], at HDAC2 [2] (setting [6]), the IC50 was 2.69 µM.
In the case of `CC(C)C1NC(=O)C2(C)CSC(=N2)c2cccc(n2)CNC(=O)CC(C=CCCS)OC1=O` (stereo not shown) [Thiazole-pyridine substitution (29b)], the “activity against Class I HDACs” value in the data set with HDACs 1, 2 and 3 is “sub-nanomolar”. In addition, the IC50 on HDAC6 (setting [5]) came out at 29 nM; at HDAC3/NCor2 (setting [5]) it was 1.1 nM.
For the compound `CCCCCCCC(=O)SCC/C=C/[C@@H]1CC(=O)NCc2nc(cs2)C2=N[C@@](C)(CS2)C(=O)N[C@@H](C(C)C)C(=O)O1` [largazole (1), largazole, reference compound], the IC50 was 7.14 µM against HDAC2 [2] and 45 to 315 nM in data set [3].
Regarding `CC(C)[C@@H]1NC(=O)[C@]2(C)CSC(=N2)c2csc(n2)CNC(=O)C[C@@H](/C=C/CCSC(c2ccccc2)(c2ccccc2)c2ccccc2)NC1=O`, in data set [4] (from COC(=O)C[C@@H](/C=C/CCSC(c1ccccc1)(c1ccccc1)c1ccccc1)NC(=O)[C@@H](NC(=O)[C@]1(C)CSC(c2csc(CNC(=O)OC(C)(C)C)n2)=N1)C(C)C, 0.94 mM, […], 3 steps), the ring closure, yield of all isomers stood at 50%.
`CCCCCCCC(=O)SCC/C=C/[C@@H]1CC(=O)NCc2nc(cs2)C2=N[C@@](C)(CS2)C(=O)N2CCC[C@H]2C(=O)O1` [ab6_161b Proline acyl]: the IC50 at HDAC2 [2] (setting [6]) was found to be 708 µM.
Compound `C[C@@]12CSC(=N1)c1csc(n1)CNC(=O)C[C@@H](/C=C/CCSC(c1ccccc1)(c1ccccc1)c1ccccc1)OC(=O)[C@@H]1CCCN1C2=O` returned a ring closure, yield of all isomers in data set [4] (from CC(C)(C)OC(=O)NCc1nc(C2=N[C@](C)(C(=O)N3CCC[C@H]3C(=O)O[C@H](/C=C/CCSC(c3ccccc3)(c3ccccc3)c3ccccc3)CC(=O)OCC[Si](C)(C)C)CS2)cs1, 0.83 mM, […], 2 steps) of 43%.
For the compound `CCCCCCCC(=O)SCC/C=C/[C@@H]1CC(=O)NCc2nc(cs2)C2=N[C@@](C)(CS2)C(=O)N[C@@H](C(C)C)C(=O)N1` [ab6_1236 acyl amide], the “X50 (curve fit, activity versus concentration)” value on HDAC2 [2] (HDAC2, logistic fit of scatter plots, Conc (uM)) is recorded as “X50 = 1.677E12 uM”.
The compound `CC(C)[C@H]1NC(=O)[C@@]2(C)CSC(=N2)c2csc(n2)CNC(=O)C[C@H](/C=C/CCSC(c2ccccc2)(c2ccccc2)c2ccccc2)OC1=O` had a ring closure, yield of all isomers in data set [4] (from CC(C)[C@@H](NC(=O)[C@@]1(C)CSC(c2csc(CNC(=O)OC(C)(C)C)n2)=N1)C(=O)O[C@@H](/C=C/CCSC(c1ccccc1)(c1ccccc1)c1ccccc1)CC(=O)OCC[Si](C)(C)C, 2 steps) of 87%.
In the case of `CC(C)[C@@H]1NC(=O)c2csc(n2)-c2csc(n2)CNC(=O)C[C@@H](/C=C/CCS)OC1=O` [Thiazole-thiazole (23b)], the IC50 at HDAC2 [1] came out at 120 nM.
For the compound `CC(C)C1NC(=O)C2CSC(=N2)c2csc(n2)CNC(=O)CC(C=CCCS)OC1=O` (stereo not shown) [Cysteine substitution 22b], the IC50 was 4.8 nM on HDAC2 [1], 130 nM at HDAC6 (setting [5]), 1.9 nM at HDAC1 and 3.8 nM at HDAC3/NCor2 (setting [5]).
